Measured values: publication PMC11676734, “Novel Cyclic Peptide–Drug Conjugate P6-SN38 Toward Targeted Treatment of EGFR Overexpressed Non-Small Cell Lung Cancer” (Pharmaceutics, 2024)
Positions of bridges follow the written chain, without caps; N, C: chain ends. Residues, ends and D or L forms follow the SMILES beside them. *: point of attachment. X1 = CCc1c2c(nc3ccc(O)cc13)-c1cc3c(c(=O)n1C2)COC(=O)[C@@]3(CC)OC(=O)CCC(=O)*; GABA = NCCCC(=O)O

Legend:
K562 (EGFR−) tumor = assay: In vivo tumor growth inhibition, K562 (EGFR−) xenograft; parameters: species or system NOD/SCID (nude) mice; details: 10 mg/kg i.v. once a week, 3 times
Procedure: (§1) Animal protocols were approved by the Institutional Animal Care and Use Committee at Ariel University. NOD/SCID (nude) mice were injected with H1299 in the right flank and K562 cells in the left flank (10^6 cells each), so that each mouse developed dual H1299 and K562 xenografts.
(§2) When tumors reached~50 mm^3, mice were injected via tail vein (i.v.).
(§3) The mice’s weight and tumor volumes were measured every 2 days. The tumor sizes were measured by using the hands-on digital caliper method, and the tumor volumes were calculated according to the Formula (1). Tumor volume (mm^3) = 0.5 × Tumor Length × Tumor Width^2(1)
Figure 6 In vivo effect of P6-SN38 conjugate in NSCLC model (10 mg/kg, once a week). […] The resected tumors are shown in (C). N = 4 in each group. * p < 0.05, ** p < 0.005, *** p < 0.001, **** p < 0.0001.

H1299 cells [1] = assay: Apoptosis assay, Annexin V-FITC/PI flow cytometry; format: cell-based; details: 2.5 µM, 6 h pre-treatment, wash, mean ± SD; for apoptotic rate / late-stage apoptosis rate: 24 h; for apoptosis / late apoptosis rate: 48 h
Procedure: H1299 cells were seeded at the concentration of 5 × 10^4 cells/mL in the RPMI 1640 growth medium and incubated in 6-well plates at 37 °C under 5% CO2. The next day, the medium was removed, and P6-SN38, or free SN38 (2.5 µM), in fresh medium was added and incubated for 6 h. Then, the medium was removed by washing out, fresh medium was added, and the plates were incubated for an additional 24 and 48 h. The cells were collected with 0.25% trypsin/EDTA solution and washed with PBS twice at 1500 rpm for 5 min. After that, Annexin-FITC (5 µM) and propidium Iodide (PI, 5 µM) were added (both from Abcam, Cambridge, UK). The cells were incubated for 15 min in the dark, and the samples (2 × 10^4 cells) were analyzed by flow cytometry.
SN38, a potent topoisomerase I inhibitor, disrupts DNA replication, leading to cell cycle arrest and apoptosis. To evaluate and compare the effects of peptide-bound SN38 (P6-SN38) and free SN38 on DNA damage and cell cycle distribution (Section 3.4), H1299 cells were pre-treated with both compounds at a concentration of 2.5 µM for 6 h, followed by washing and continued incubation for 24 or 48 h (Figure 3).
Figure 3 Apoptosis of H1299 cells estimated through cell survival percentage by binding with annexin V-FITC. H1299 cells were pre-incubated with P6-SN38 and SN38 as described in Section 2.6. Cells were stained with annexin and PI and analyzed by flow cytometry; * p < 0.05, *** p < 0.001, **** p < 0.0005. “ns” means non-significant.

EGFR− HEK293 cells = assay: XTT cell viability / cytotoxicity, HEK293 cells; format: cell-based; details: 6 h pre-incubation, wash; for effect on EGFR− HEK-293 cells: further incubation, in words; for IC50: HEK293, XTT
Procedure: (§4) Cell proliferation in the presence of P6-SN38 was evaluated using a commercial XTT assay kit (Enhanced Cell Counting Kit 8 (WST-8/CCK8); Elabscience, Houston, TX, USA). A total of 10^4 cells per well were seeded in 96-well plates and incubated overnight in complete RPMI growth medium. After washing, the cells were cultured in 100 µL of fresh medium containing varying concentrations of free SN38 or PDC for 3 h and 6 h (pre-incubation). Following this, the cells were washed again and incubated for an additional 24, 48, and 72 h. The XTT reagent was then added to each well, and the plate was incubated for 2 h at 37 °C. For cytotoxicity analysis, absorbance was measured at 450 nm and 630 nm using a TECAN Infinite M200 ELISA reader (Citrine Solutions, Oranit, Israel). All assays were performed in triplicate, and each experiment was repeated three times.
(§5) Figure 2 Cell viability after 6 h of pre-incubation of EGFR+ H1299 (A) and EGFR− HEK293 (B) cell lines with P6-SN38 and SN38. H1299 and HEK293 cells were cultured in a 96-well plate and pre-incubated with six different concentrations (0.5, 2.5, 5, 10, 15, and 25 μM) of P6-SN38 or SN38 for 6 h, washed out, and incubated additionally for 24 h, 48 h, and 72 h. Cell viability was assessed using an XTT assay, with the viability of untreated control cells set at 100%. The viability of treated cells was expressed as a percentage relative to the control. Data are presented as the mean ± standard deviation (SD).

[2] = Mice body weight during efficacy study; format: in vivo, NOD/SCID (nude) mice; details: i.v. once a week, 3 times; P6-SN38 10 mg/kg, Erbitux 10 mg/kg, free SN38 3 mg/kg; 18 days; N = 4
Procedure: as §2, §3
(§6) The resected tumors are shown in (C). N = 4 in each group. * p < 0.05, ** p < 0.005, *** p < 0.001, **** p < 0.0001.

EGFR+ H1299 cells = assay: XTT cell viability / cytotoxicity, H1299 cells; format: cell-based; details: 6 h pre-incubation, wash
Procedure: as §4, §5

H1299 cells [3] = assay: Cell cycle analysis, PI flow cytometry; format: cell-based; details: 2.5 µM, 6 h pre-treatment, in words
Procedure: Cell cycle analysis was conducted using a cell cycle detection kit (Biotopped, Huangshan, China). H1299 cells were seeded in 5 × 10^4 cells/mL concentration in the complete growth medium. (RPMI 1640) Incubation was performed in 6-well plates at 37 °C under 5% CO2. The next day, the medium was removed, and the fresh medium containing P6-SN38 or free SN38 (2.5 µM) was added and incubated for 6 h. Then, the medium was removed by washing, a fresh medium was added, and the cells were incubated for an additional 24 and 48 h. Then, the cells were trypsinized and washed with PBS twice at 1500 rpm for 5 min. Cells were fixed in 66% ethanol for 2 h. Then, cells were incubated with 0.2 mL buffer solution containing PI (25 μL) and RNase A (10 μL) after being rinsed with cold PBS (according to the manufacturer’s protocol). Finally, the cell cycle was analyzed by Beckman CytoFLEX FCM (Bio-Rad Laboratories, Inc., Rishon Le Zion, Israel).
To investigate whether the observed growth inhibition and apoptosis were mediated by cell cycle arrest, we examined the effects of P6-SN38 and free SN38 on cell cycle progression in NSCLC H1299 cells. The cells were pre-treated with the compounds for 6 h, followed by an additional 24 or 48 h incubation period (Figure 4A,B).
Figure 4 Cell cycle arrest analysis of treatment with SN38 and P6-SN38. Cell cycle distribution of H1299 cells detected by flow cytometry after 24 h (A) and 48 h (B) treatment with SN38 and P6-SN38 at 2.5 µM. A total of 1 × 10^6 cells were pre-incubated with P6-SN38 or SN38 for 6 h, followed by additional incubation for 24 h and 48 h. The cells were then stained with propidium iodide (PI) and analyzed by flow cytometry (C). The data in A and B are presented as the mean ± SD (n = 3). “ns” means non-significant. * p < 0.05, *** p < 0.001, **** p < 0.0005. “ns” means non-significant. TEXT PRINTED IN THE PICTURE: (C) 01-H1299_P6_24h-B9.fcs: %G1 : 6.76; %S : 52.1; %G2 : 40.6 | (C) 01-H1299_P6_48h-D8.fcs: %G1 : 9.76; %S : 47.2; %G2 : 40.6 | (C) 01-H1299_SN_24h-A9.fcs: %G1 : 0; %S : 39.4; %G2 : 54.0 | (C) 01-H1299_SN_48h-C8.fcs: %G1 : 9.66; %S : 61.4; %G2 : 27.8 DOUBTS OF THE COPYIST ABOUT THIS PICTURE: 01-H1299_P6_24h-B9.fcs, %G1: small print, 6.76 could be 8.76 or 6.78 / 01-H1299_P6_24h-B9.fcs, %G2: small print, 40.6 could be 40.8 / 01-H1299_P6_48h-D8.fcs, %G1: small print, 9.76 could be 9.78 / 01-H1299_P6_48h-D8.fcs, %G2: small print, 40.6 could be 40.8 / 01-H1299_SN_24h-A9.fcs, %S: small print, 39.4 could be 38.4 / 01-H1299_SN_48h-C8.fcs, %G1: small print, 9.66 could be 9.68 or 9.86 / 01-H1299_SN_48h-C8.fcs, %G2: small print, 27.8 could be 27.6 / The untreated samples (01-H1299_24h_UT-A6.fcs, 01-H1299_UT_48h-C6.fcs) were left out because they stand for no substance. The RMSD values were left out as fit statistics.

H1299 (EGFR+) tumor = assay: In vivo tumor growth inhibition, H1299 (EGFR+) xenograft; parameters: species or system NOD/SCID (nude) mice; details: 3 times, N = 4
Procedure: as §1, §2, §3, §6

Row | SMILES | effect on growth of K562 (EGFR−) tumors, in words (K562 (EGFR−) tumor; 18 days) | K562 tumor volume (K562 (EGFR−) tumor; day 18, initial ~50 mm^3, control 1772 ± 265, N = 4) [mm^3] | apoptotic rate (H1299 cells [1]) [%] | late-stage apoptosis rate (H1299 cells [1]) [%] | apoptosis (H1299 cells [1]) [%] | late apoptosis rate (H1299 cells [1]) [%] | effect on EGFR− HEK-293 cells (EGFR− HEK293 cells) | IC50 (EGFR− HEK293 cells; 48 h incubation) [µM] | IC50 (EGFR− HEK293 cells; 72 h incubation) [µM] | mice weight loss, in words [2] | IC50 (EGFR+ H1299 cells; 48 h incubation) [nM] | IC50 (EGFR+ H1299 cells; 72 h incubation) [nM] | cell cycle phase of arrest (H1299 cells [3]; 24 h) | cell cycle phase of arrest (H1299 cells [3]; 48 h) | H1299 tumor eradication (H1299 (EGFR+) tumor; 10 mg/kg i.v. once a week, day 18) | effect on tumor growth, in words (H1299 (EGFR+) tumor; i.v. once a week, Erbitux 10 mg/kg, free SN38 3 mg/kg, 18 days)
1 | CCc1c2c(nc3ccc(O)cc13)-c1cc3c(c(=O)n1C2)COC(=O)[C@@]3(CC)OC(=O)CCC(=O)NCCCC(=O)N[C@H]1CSSC[C@@H](C(N)=O)NC(=O)[C@H]([C@@H](C)CC)NC(=O)[C@H](Cc2ccc(O)cc2)NC(=O)[C@H](CO)NC(=O)CNC(=O)[C@@H]2CCCN2C(=O)[C@H](C(C)C)NC(=O)[C@H](Cc2c[nH]cn2)NC1=O [P6-SN38] ({X1-GABA}-CHVPGSYIC-NH2; disulfide 1-9) | did not affect the growth | 1522 ± 561 | 12.9 ± 4.2 | 14.1 ± 7.3 | 21.48 ± 9.90 | 25.32 ± 10.00 | nearly no effect | > 50 | > 50 | minimal weight loss | 2500 | 900 | both the S and G2/M phases | S/G2 phase arrest | eradicated completely in 3 out of 4 mice | 
2 | CCc1c2c(nc3ccc(O)cc13)-c1cc3c(c(=O)n1C2)COC(=O)[C@]3(O)CC [SN38] |  |  | 16.3 ± 6.4 | 15.2 ± 6.8 | 19.27 ± 5.11 | 26.80 ± 14.90 | active in both cell lines | 4.4 | 2.7 | significant weight loss | 800 | 500 | G2/M phase arrest | S/G2 phase arrest |  | non-specific tumor reduction
